# Test results taken from ChEMBL document CHEMBL1151068, “Rollimembrin, a novel acetogenin inhibitor of mammalian mitochondrial complex I” (Bioorg Med Chem Lett, 1997).
# Biological target: Mitochondrial complex I; NADH oxidoreductase (Bos taurus, UniProt P25708+P52505)
# Experiment: Concentration required for the inhibition of NADH oxidase in submitochondrial particles from beef heart
# Type: protein-complex assay
# Sequence of Mitochondrial complex I; NADH oxidoreductase (P25708 21-464 limits assumed, other chains not shown): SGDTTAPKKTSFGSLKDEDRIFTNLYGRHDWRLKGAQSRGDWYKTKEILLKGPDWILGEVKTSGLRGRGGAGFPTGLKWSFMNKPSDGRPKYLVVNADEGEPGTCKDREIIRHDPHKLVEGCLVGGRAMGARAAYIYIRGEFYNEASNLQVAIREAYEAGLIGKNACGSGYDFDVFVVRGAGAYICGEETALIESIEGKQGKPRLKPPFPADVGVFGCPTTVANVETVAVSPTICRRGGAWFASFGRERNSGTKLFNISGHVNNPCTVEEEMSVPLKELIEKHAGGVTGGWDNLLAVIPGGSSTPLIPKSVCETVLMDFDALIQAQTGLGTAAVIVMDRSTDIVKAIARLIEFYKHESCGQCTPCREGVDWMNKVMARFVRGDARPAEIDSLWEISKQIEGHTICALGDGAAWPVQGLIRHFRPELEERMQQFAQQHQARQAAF
row,SMILES,IC50
1,CCCCCCCCCC[C@H](O)[C@H]1CC[C@@H]([C@@H]2CC[C@H]([C@H](O)CCCCCCCCCCCCC3=C[C@@H](C)OC3=O)O2)O1,0.58 nM
2,CCCCCCCCCC[C@H](O)[C@H]1CC[C@@H]([C@@H]2CC[C@H]([C@H](O)CCCCCCCCCC[C@@H](O)CC3=C[C@@H](C)OC3=O)O2)O1,0.58 nM
3,CCCCCCCCCC[C@H](O)[C@H]1CC[C@@H]([C@@H]2CC[C@H]([C@H](O)CCCCCCCC[C@@H](O)CC3=C[C@@H](C)OC3=O)O2)O1,0.33 nM
